Results on one compound are retold here after patent publication US8354498B2, “CD4 mimic peptides and their uses” (Commissariat a l'Energie Atomique, priority 2006, dated 2013).

Type in all cases: cell-based
In one assay the test system is HIV-1 pseudovirus Ba-L. The experiment in a line: HIV single cycle pseudovirus assay in GHOST cells. As to conditions: read-out: antiviral activity EC50. On the procedure: (§1) For single-cycle infection experiments, HIV pseudoviruses representative of different HIV-1 subtypes were produced by co-transfection of 2×10^5 HEK293 (American Type Culture Collection) derived cells expressing the SV40 T antigen (HEK293 T), using the calcium phosphate method (ProFection® mammalian transfection system; PROMEGA). To this end, 1 μg of an HIV-1 env expressing vector under control of a CMV promoter, derived from pcDNA4/TO backbone vector (INVITROGEN) and 400 ng of the HIV-1 genomic vector (pNL4-3.Luc R^−E^−; National Institutes of Health AIDS Research and Reference Reagent program; catalogue number 3418), under control of the LTR promoter were used. pNL4-3.Luc R^−E^− contains the whole HIV genome, including a packaging signal, but has a frameshift in the env and vpr genes rendering it non-infectious. Furthermore a luciferase reporter gene replaces the nef gene. After 24 h, the medium was replaced with medium containing 1 mM sodium butyrate (SIGMA-ALDRICH) and the cells were further incubated for an additional 24 h. Afterwards, the supernatant with the pseudovirus was harvested, filtered (Millex 0.45 μm filters, MILLIPORE) and after adding Fetal calf serum (FCS; 10%) stored at −80° C. Pseudoviruses of different HIV-1 subtypes were created, including pseudoviruses derived from the subtype B, CCR5 co-receptor using strains Ba-L and SF162; the subtype B, CXCR4 co-receptor using strains Mn; the subtype C, CCR5 co-receptor using strains VI829, VI1358 and MJ4 and the CRF01_AE, CXCR4 co-receptor using strain CA10-3.
(§2) Fifty microliters of HIV pseudovirus were pre-incubated with 50 μl of a dilution series of a CD4 miniprotein or reference compound. After 15 minutes, 100 μl of GHOST target cells (AIDS REFERENCE AND REAGENT PROGRAM; 1.2×10^5 cells/ml) expressing CD4 and either of the HIV co-receptors CCR5 or CXCR4 were added to the 96-well cups containing the pre-treated pseudovirus. The GHOST cells were lysed 48 h post-infection by addition of the luciferin substrate (SteadyLite HTS, PERKIN ELMER LIFE SCIENCES). The resulting light signal, expressed as relative lights units (RLU), was quantified in a luminometer (Top Count™, CANBERRA-PACKARD).

The test system of a further assay is HIV-1 pseudovirus MJ4. The experiment in a line: HIV single cycle pseudovirus assay in GHOST cells. The settings on record: read-out: antiviral activity EC50. As for the experimental part: as §1, §2
The next assay deals with HIV-1 pseudovirus SF162. The experiment in a line: HIV single cycle pseudovirus assay in GHOST cells. As to conditions: read-out: antiviral activity EC50. As for the experimental part:
as §1, §2

In a further assay the test system is HIV-1 pseudovirus VI829. Description: HIV single cycle pseudovirus assay in GHOST cells. As to conditions: read-out: antiviral activity EC50. On the procedure: as §1, §2
The subject of a further assay is HIV-1 pseudovirus Mn. Description: HIV single cycle pseudovirus assay in GHOST cells. The settings on record: read-out: antiviral activity EC50. On the procedure:
as §1, §2

The next assay deals with HIV-1 pseudovirus CA10-3. Description: HIV single cycle pseudovirus assay in GHOST cells. As to conditions: read-out: antiviral activity EC50. On the procedure:
as §1, §2

In the next assay the test system is HIV-1 pseudovirus VI1358. Description: HIV single cycle pseudovirus assay in GHOST cells. As to conditions: read-out: antiviral activity EC50. As for the experimental part:
as §1, §2

The subject of a further assay is HIV-1 Ba-L. Description: Dendritic cells assay: MO-DC/CD4+ T cell co-cultures, replication competent virus. The settings on record: for EC50: Human immunodeficiency virus 1, BAL. As for the experimental part:
Dendritic cell experiments were preformed with the replication-competent CCR5 co-receptor, using non-syncytium inducing, subtype B HIV-1 strain Ba-L whose infectious titer was determined on cultures of PHA/IL-2 stimulated PBMC.
Monocytes were separated from the buffy-coats of HIV seronegative blood donors by counter-flow elutriation and E-rosetting. They were subsequently differentiated to monocyte-derived dendritic cells (MO-DC) using GM-CSF and IL-4. […] After 30 minutes, 100 μl of MO-DC were added (4×10^5 cells/ml) and incubated for 2 h (37° C., 5% CO2). Afterwards, cells were washed 3 times and autologous CD4+ T cells were added, in the presence of compound. Co-cultures were incubated for 24 h, after which the cells were washed again (3 times) to remove the compound. Cells were incubated during 14 days of primary culture, during which half of the culture medium was refreshed twice weekly, without compound. At day 14, cultures were washed and PHA/IL-2 activated PBMC were added (2×10^5 cells/cup) to detect any latent or subliminal infection during a supplementary 14 days of secondary culture. Culture supernatants of primary (day 7 and day 14) and secondary (day 28) cultures were analyzed for the presence of HIV p24 Ag by a monoclonal p24 antibody (HuMab-HIVp24; BIOMARIC NV) enzyme-linked immunosorbant assay (ELISA).
Importantly, the replication-competent HIV-1 Ba-L reference strain, was used for these experiments. The virus was shortly pre-incubated with a dilution range of one of the compounds before addition of the MO-DC target cells. The compound remained present during infection and during the first 24 h of the co-culture of the MO-DC with the autologous CD4^+ T cells, but was washed away afterwards.

Like-named read-outs stand apart in the source and are kept apart here.

With `Cc1cc(C)c(Nc2ccnc(Nc3ccc(C#N)cc3)n2)c(C)c1` [TMC120], the EC50 stood at 1.5 nM in the assay on HIV-1 pseudovirus Ba-L; 1.5 nM in the assay on HIV-1 pseudovirus MJ4; 0.9 nM in the assay on HIV-1 pseudovirus SF162; 1.2 nM in the assay with HIV-1 pseudovirus VI829; 1.8 nM with HIV-1 pseudovirus Mn; 1.5 nM with HIV-1 pseudovirus CA10-3. Moreover, the EC50 in the assay on HIV-1 pseudovirus VI1358 came out at 0.6 nM; in the assay on HIV-1 Ba-L (168 h, Day 7, read-out: EC50, primary culture, Day 7), 3 nM; in the assay on HIV-1 Ba-L (336 h, Day 14, read-out: EC50, primary culture, Day 14), 3 nM. Further, in the assay on HIV-1 Ba-L (confirmed at Day 28), the “Cmin, secondary culture, Day 28 (minimal concentration blocking infection)” value came out at 100 nM.
